Results from ChEMBL document CHEMBL1201862, “PubChem BioAssay data set” (2004).
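How tested: cells in 96-well plates exposed to compound for 48 hours at five concentrations. Abbreviation: GI50, concentration required for 50% inhibition of growth.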 Calls of active or inactive are those of the source. Cut-off read from the data, not from the text of the source: active = GI50 up to about 1.1 µM and inactive = higher.

Key:
Experiment in all cases: inhibition of tumour cell growth, NCI panel, 48 h
[1] = tested on: OVCAR-3
[2] = tested on: ACHN
[3] = tested on: IGROV-1
[4] = tested on: Malme-3M
[5] = tested on: NCI-H460
[6] = tested on: COLO 205
[7] = tested on: OVCAR-4
[8] = tested on: A498
[9] = tested on: KM12
[10] = tested on: SK-MEL-5
[11] = tested on: NCI-H23
[12] = tested on: OVCAR-8
[13] = tested on: 786-0
[14] = tested on: SF-268
[15] = tested on: UACC-62
[16] = tested on: MCF7
[17] = tested on: CAKI-1
[18] = tested on: U-251
[19] = tested on: SK-OV-3
[20] = tested on: NCI-H226
[21] = tested on: HCC 2998
[22] = tested on: HL-60
[23] = tested on: LOX IMVI
[24] = tested on: RPMI-8226
[25] = tested on: SW-620
[26] = tested on: DU-145
[27] = tested on: HCT-116
[28] = tested on: MOLT-4
[29] = tested on: EKVX
[30] = tested on: CCRF-CEM
[31] = tested on: SF-295
[32] = tested on: A549
[33] = tested on: UACC-257
[34] = tested on: SR
[35] = tested on: SNB-75
[36] = tested on: SNB-19
[37] = tested on: MDA-MB-231
[38] = tested on: Hs-578T
[39] = tested on: NCI/ADR-RES
[40] = tested on: HT-29
[41] = tested on: M14
[42] = tested on: HCT-15
[43] = tested on: SK-MEL-28
[44] = tested on: BT-549
[45] = tested on: SF-539
[46] = tested on: TK-10
[47] = tested on: MDA-N
[48] = tested on: RXF 393
[49] = tested on: OVCAR-5
[50] = tested on: HOP-62
[51] = tested on: SN12C
[52] = tested on: PC-3
[53] = tested on: MDA-MB-435
[54] = tested on: UO-31
[55] = tested on: K562

With `O=C(C(=O)c1cc(-c2ccccc2)nc2ccc3ccccc3c12)c1ccccc1` the GI50 [1] was 67.1 µM (inactive), the GI50 [2] was > 100 µM (inactive) and the GI50 [3] was 37.9 µM (inactive). For the same compound, the GI50 [4] was 27.8 µM (inactive), the GI50 [5] was > 100 µM (inactive) and the GI50 [6] was 88.1 µM (inactive). The GI50 [7] was 21.1 µM (inactive), the GI50 [8] was 90.4 µM (inactive) and the GI50 [9] was 31.3 µM (inactive). For the same compound, the GI50 [10] was 60.1 µM (inactive), the GI50 [11] was 34.1 µM (inactive) and the GI50 [12] was 61.2 µM (inactive). The GI50 [13] was 33.5 µM (inactive), the GI50 [14] was 20.8 µM (inactive) and the GI50 [15] was 38.8 µM (inactive). For the same compound, the GI50 [16] was 28.1 µM (inactive), the GI50 [17] was 58.3 µM (inactive) and the GI50 [18] was 34.5 µM (inactive). The GI50 [19] was 46.7 µM (inactive), the GI50 [20] was 72.6 µM (inactive) and the GI50 [21] was > 100 µM (inactive). For the same compound, the GI50 [22] was 20.7 µM (inactive), the GI50 [23] was 52 µM (inactive) and the GI50 [24] was > 100 µM (inactive). The GI50 [25] was 59 µM (inactive), the GI50 [26] was > 100 µM (inactive) and the GI50 [27] was 10.6 µM (inactive). The GI50 [28] was 22.1 µM (inactive), the GI50 [29] was 76.9 µM (inactive) and the GI50 [30] was 24.7 µM (inactive). The GI50 [31] was 52.5 µM (inactive), the GI50 [32] was 68.4 µM (inactive) and the GI50 [33] was 75.7 µM (inactive). The GI50 [34] was 11.7 µM (inactive), the GI50 [35] was 18.4 µM (inactive) and the GI50 [36] was 35.9 µM (inactive). The GI50 [37] was > 100 µM (inactive), the GI50 [38] was 20.7 µM (inactive) and the GI50 [39] was 97.7 µM (inactive). For the same compound, the GI50 [40] was > 100 µM (inactive), the GI50 [41] was 67.5 µM (inactive) and the GI50 [42] was 75 µM. The GI50 [43] was 28.6 µM (inactive), the GI50 [44] was 65.8 µM (inactive) and the GI50 [45] was 32.1 µM (inactive). For the same compound, the GI50 [46] was 99.3 µM (inactive), the GI50 [47] was 36.1 µM (inactive) and the GI50 [48] was 39 µM (inactive). For the same compound, the GI50 [49] was > 100 µM (inactive), the GI50 [50] was 31.6 µM (inactive) and the GI50 [51] was > 100 µM (inactive). For the same compound, the GI50 [52] was 43.2 µM (inactive), the GI50 [53] was 33.2 µM (inactive) and the GI50 [54] was > 100 µM (inactive). For the same compound, the GI50 [55] was 18.5 µM (inactive).
